How the values were obtained:
[1] = Retinoid levels in eyes and liver after 14 days of daily dosing; assay type: in vivo, Rpe65^−/− and C57Bl/6 mice
Experimental: (§1) Analyses of Retinoic Acid and Non-polar Retinoids—All experimental procedures related to extraction, retinoid derivatization and separation of retinoids were done under dim red light provided by a Kodak No. 1 safelight filter (transmittance>560 nm). Retinoic acid extraction from liver was performed as formerly described in, e.g., Batten M L. et al. supra. Analyses of polar retinoids in plasma, eye and liver were performed with an Agilent 1100 HPLC and two tandem normal phase columns: a Varian Microsorb Silica 3 μm, 4.6×100 mm (Varian, Palo Alto, Calif.) and an Ultrasphere-Si, 5 μm, 4.6×250 mm column (Aleman T S, et al. supra). An isocratic normal phase system of hexane: 2-propanol:glacial acetic acid (1000:4.3:[…]; v/v/v) was used for elution at a flow rate of 1 ml/min at 20° C. with detection at 355 nm. Calibration was done with standards of all-trans-retinoic acid and 9-cis-retinoic acid purchased from Sigma-Aldrich. Analyses of non-polar retinoids in plasma, eye and liver were carried out by normal phase HPLC (Ultrasphere-Si, 5 μm, 4.6×250 mm, Beckman, Fullerton, Calif.) with 10% ethyl acetate and 90% hexane at a flow rate of 1.4 ml/min with detection at 325 nm by an HP1100 HPLC with a diode array detector and HP Chemstation A.03.03 software.

[2] = 9-cis-retinal levels in the eye after 3 daily doses; assay type: in vivo, Rpe65^−/− mice
Experimental: as §1

Rpe65^−/− mice [3] = assay: Retinal histology after intermittent and daily administration for 8 weeks; assay type: in vivo; conditions: for Retinal cross-section morphology: 8 weeks
Text: Histology and Immunohistochemistry—Histological procedures employed for the eye analyses as described in Maeda A, et al. supra.
(§2) The dosing regimens are illustrated in FIG. 7.

Rpe65^−/− mice [4] = conditions: mouse, in vivo
Experimental: (§3) Briefly, mice first were dark-adapted overnight prior to recording. Then under a safety light, mice were anesthetized by intraperitoneal injection of 20 μl/g body weight of 6 mg/ml ketamine and 0.44 mg/ml xylazine diluted with 10 mM sodium phosphate, pH 7.2, containing 100 mM NaCl. Pupils were dilated with 1% tropicamide. A contact lens electrode was placed on the eye and a reference electrode and ground electrode were positioned on the ear and tail, respectively. ERGs were recorded with the universal testing and electrophysiologic system (UTAS) E-3000 (LKC Technologies, Inc.).
(§4) Single-flash recording—White light flash stimuli were employed with a range of intensities (from −3.7 to 2.8 log cd·s·m^·2), and flash durations were adjusted according to intensity (from 20 μs to 1 ms). Two to five recordings were made at sufficient intervals between flash stimuli (from 10 s to 10 min) to allow mice to recover. Typically, four to eight animals were used for recording each point. The one-way ANOVA test was used for statistical analysis of responses.
Rpe65^−/− mice were split into two groups (an intermittent group and a daily group), each treated for a total of 8 weeks with 1 or 4 mg/kg of 9-cis-R-Ac. […] ERGs were recorded at day 28 and again at day 56, after which tissues were collected for retinoid analyses of the eye and liver and histology of the eye.

Rpe65^−/− mice [5] = conditions: mouse, in vivo; remark: listed apart in the source
Experimental: (§5) Electroretinogram (ERG)—ERGs were recorded on anesthetized mice as described in, e.g., Maeda A, et al. Role of photoreceptor-specific retinol dehydrogenase in the retinoid cycle in vivo.
as §3, §4
To test this directly, 5-week-old Rpe65^−/− mice were gavaged daily with 9-cis-R-Ac in soybean oil at doses of 1, 4, or 12.5 mg/kg for 14 days. […]

[6] = Retinoid analyses of eye and liver after 8-week regimens; assay type: in vivo, Rpe65^−/− mice; conditions: 8-week intermittent and daily regimens
Experimental: as §1, §2

[7] = Retinoid levels in eyes after single doses of 9-cis-R-Ac; assay type: in vivo, Rpe65^−/− mice
Experimental: as §1

[8] = Clinical side effects after single doses of 9-cis-R-Ac; assay type: in vivo, Rpe65^−/− mice; conditions: single doses up to 50 mg/kg in soybean oil
Experimental: Single doses (2-50 mg/kg) of 9-cis-R-Ac in soybean oil were administered to 5-week-old Rpr65Rpe65^−/− mice to test whether the pre-prodrug 9-cis-R-Ac was capable of delivering artificial chromophore to the eye.
(§6) Following dark-adaption for 3 days post-gavage, scotopic single flash ERGs were recorded and eyes were collected to assess 9-cis-retinal levels.

Rpe65^−/− mice [9] = conditions: mouse, in vivo; remark: listed apart in the source
Experimental: as §5, §3
(§7) Single-flash recording—White light flash stimuli were employed with a range of intensities (from −3.7 to 2.8 log cd·s·m^·2), and flash durations were adjusted according to intensity (from 20 μs to 1 ms). Two to five recordings were made at sufficient intervals between flash stimuli (from 10 s to 10 min) to allow mice to recover. Typically, four to eight animals were used for recording each point. The one-way ANOVA test was used for statistical analysis of responses. […]

Rpe65^−/− mice [10] = conditions: mouse, in vivo; remark: listed apart in the source
Experimental: as §5, §3, §7, §6

[11] = Plasma retention of 9-cis-retinyl acetate metabolites after single gastric gavage; assay type: in vivo, C57/Bl6 mice; conditions: for Absorption (plasma levels of fatty acid 9-cis-retinyl esters and 9-cis-retinol): compared to canola and rapeseed oils, 50 mg/kg gavage
Experimental: as §1
Several different oil-based preparations were prepared to test the absorption levels of 9-cis-R-Ac in plasma. More specifically, a single 50 mg/kg dose of 9-cis-retinyl acetate (50 mg/kg) suspended in 4 different vehicle oils was administrated by gastric gavage to 5-week-old C57/Bl6 mice and retinoid levels were determined in the plasma thereafter (n=5 for each time point per group).

## CC(=O)OC/C=C(C)/C=C/C=C(C)\C=C\C1=C(C)CCCC1(C)C [9-cis-R-Ac, 9-cis-retinyl acetate]
[1]; 1 mg/kg daily for 14 days
  9-cis-retinal in eyes: No 9-cis-retinal was detected
[1]; 4 mg/kg daily for 14 days
  9-cis-retinal in eyes: 38 ± 4 pmol
[1]; 12.5 mg/kg daily for 14 days
  9-cis-retinal in eyes: 95 ± 14 pmol
[1]; 4 and 12.5 mg/kg/day groups, 14 days
  Fatty acid 9-cis-retinyl esters in eyes: 1 pmol/eye
[1]; daily dosing 14 days, C57Bl/6 and Rpe65^−/− mice
  Fatty acid 9-cis-retinyl esters in livers: accumulate in a dose-dependent manner
[1]; daily dosing 14 days, any group
  all-trans-retinol and 9-cis-retinol in eyes: Neither all-trans-retinol nor 9-cis-retinol was found
[2]; day 4, all treated mice (1, 4, 12.5 mg/kg/day for 3 days)
  9-cis-retinal in the retinas: detected
[2]; day 9, after 3 daily doses
  9-cis-retinal in the retinas: No 9-cis-retinal was found
Rpe65^−/− mice [3]; 1 mg/kg by either schedule, vs control mice
  Retinal cross-section morphology: no significant change
Rpe65^−/− mice [3]; 4 mg/kg daily or 4 mg/kg intermittent
  Retinal cross-section morphology: improvement of rod outer segment (ROS) morphology
Rpe65^−/− mice [3]; 8-week administration
  Effect on retina (photoreceptor outer segment lengths, nuclei in outer nuclear layer): dose-dependent protective effect
Rpe65^−/− mice [4]
  Dose sufficient for significant improvement in ERG responses over control: 1 mg/kg
Rpe65^−/− mice [5]
  Lowest daily test dose evoking significant improvement in retinal function: 1 mg/kg
[6]
  9-cis-retinal in the eyes: detected in a dose-dependent manner
[7]; single dose 50 mg/kg
  9-cis-retinol in eyes: 43 pmol/eye
[7]; single doses
  11-cis-retinoids in eyes: No 11-cis-retinoids were detected
[7]; single doses 2 and 4 mg/kg
  9-cis-retinal in the eye: trace levels
[7]; single doses, all analyzed eyes
  Fatty acid 9-cis-retinyl esters in eyes: No fatty acid 9-cis-retinyl esters were detected
[8]
  Clinical side effects: no obvious clinical side effects
Rpe65^−/− mice [9]
  Duration of positive ERG effect after treatment: 4 to 6 days
Rpe65^−/− mice [10]
  ERG effect of lower doses: positive ERG effects
  Lowest tested dose that provided significant ERG improvement: 6.25 mg/kg
[11]; among the test vehicles and during the 23 h test period
  Plasma levels of all-trans-retinol and fatty acid all-trans-retinyl esters: did not differ significantly
[11]; in soybean oil
  Absorption (plasma levels of fatty acid 9-cis-retinyl esters and 9-cis-retinol): best absorption
[11]; in sunflower oil
  Absorption (plasma levels of fatty acid 9-cis-retinyl esters and 9-cis-retinol): best absorption
[11]; single 50 mg/kg gastric gavage, C57/Bl6 mice
  Time of highest plasma levels of 9-cis-retinoids: 3 h

Source: patent publication US10736865B2, “Pharmaceutical formulations comprising 9-cis-retinyl esters in a lipid vehicle” (RETINAGENIX THERAPEUTICS, INC., priority 2009, dated 2020)
